# Test results as given in patent publication US20220023271A1, “COMPOSITION FOR PREVENTING OR TREATING CELLULAR SENESCENCE-RELATED DISEASES COMPRISING ZOTAROLIMUS AS ACTIVE INGREDIENT” (RESEARCH COOPERATION FOUNDATION OF YEUNGNAM UNIVERSITY, priority 2018, published 2022).
# Test system: human retinal pigmented epithelial cells (ARPE-19)
# Test: LDH activity analysis in retinal pigmented epithelial cells
# Type: cell-based
# Conditions: young and senescent retinal pigmented epithelial cells
# Method: Cytotoxicity against young and senescent cells was investigated with a lactate dehydrogenase (LDH) activity kit (Dojindo Molecular Technologies Inc.).
# Young cells (1×10^3 cells/100 μl/well) or senescent cells (2×10^3 cells/100 μl/well) were dispensed into a 96-well plate, and then cultured overnight in a 37° C., 5% CO2 incubator. Zotarolimus and ABT263 were treated at each concentration, and then incubated for 4 days in a 37° C., 5% CO2 incubator.
# After transferring the cell culture solution to a 1.5 ml tube, it was centrifuged at 4° C. and 12,000 rpm. 100 μl of the supernatant was dispensed into a 96-well plate, and 100 μl of the LDH measurement solution was added to each well, followed by reaction in a CO2 incubator for 30 minutes.
# 50 μl of the LDH reaction stop solution was added, and absorbance was measured at 490 nm using a microplate reader. The level of LDH activity was expressed as a relative value based on the absorbance of the control group treated with only DMSO.
smiles,measurement,value
CO[C@H]1C[C@@H]2CC[C@@H](C)[C@@](O)(O2)C(=O)C(=O)N2CCCC[C@H]2C(=O)O[C@H]([C@H](C)C[C@@H]2CC[C@H](n3cnnn3)[C@H](OC)C2)CC(=O)[C@H](C)/C=C(\C)[C@@H](O)[C@@H](OC)C(=O)[C@H](C)C[C@H](C)/C=C/C=C/C=C/1C [zotarolimus],cytotoxicity by LDH activity analysis,cytotoxicity specific to senescent cells did not appear
